According to patent publication US20200002382A1, “Method for manufacturing oxytocin by liquid-phase polypeptide synthesis” (LANZHOU KAIBO PHARMACEUTICAL CO., LTD., priority 2017, published 2020):
Where two headings read alike, the source gives them in different places.

Legend:
[1] = Biological value of the pure oxytocin product by the content determination method of the European Pharmacopoeia; details: pure oxytocin from the liquid-phase synthesis; European Pharmacopoeia (version 8.0) content determination method, European Pharmacopoeia standards as standard materials; water and acetic acid removed
Text: In order to solve the problems existing in the present oxytocin synthesis technology, the invention provides a liquid-phase synthesis technique of oxytocin characterized by high productivity, low cost, safe environment, mild reaction conditions, high level of purity and biological value and great possibility for industrial production. The pure product of oxytocin provided by the invention has a content of 98.1% and a biological value of 588 IU/mg measured by the content determination method according to the European Pharmacopoeia (version 8.0).
Liquid contained oxytocin with purity above 99% is collected, concentrated at 25° C., desalted by PS polymer, concentrated, and freeze-dried to obtain the pure product of oxytocin (the HPLC image is shown in the attached drawings). The pure product of oxytocin provided by the invention has a content of 98.1% and a biological value of 588 IU/mg measured by the content determination method according to the European Pharmacopoeia, with the European Pharmacopoeia standards used as the standard materials. […]

[2] = Photaki synthesis: 1,2-diiodoethane disulfide formation, HBr/AcOH deprotection, purified product; cited from earlier work

SMILES: CC[C@H](C)[C@@H]1NC(=O)[C@H](Cc2ccc(O)cc2)NC(=O)[C@@H](N)CSSC[C@@H](C(=O)N2CCC[C@H]2C(=O)N[C@@H](CC(C)C)C(=O)NCC(N)=O)NC(=O)[C@H](CC(N)=O)NC(=O)[C@H](CCC(N)=O)NC1=O [oxytocin, Oxytocin]
- biological value [1]: 588 IU/mg
- biological value [2]: 380 IU/mg
